Results on 1 compound are retold here after article PMC5218480 (PLoS ONE, 2017).

This test deals with MV-4-11 cells. As to the kind of experiment: Gene expression microarray analysis (Affymetrix PrimeView) and GSEA. Details: RFU PODN (11730768_x_at) / Fold change /veh PODN (11730768_x_at) / RFU LINC00158 (11744669_a_at) / Fold change /veh LINC00158 (11744669_a_at) / RFU DUSP10 (11751237_a_at) / Fold change /veh DUSP10 (11751237_a_at) / RFU ID3 (11757404_x_at) / Fold change /veh ID3 (11757404_x_at) / RFU PLEKHG5 (11737974_s_at) / Fold change /veh PLEKHG5 (11737974_s_at) / RFU LRRC4B (11730491_at) / Fold change /veh LRRC4B (11730491_at) / RFU GIMAP4 (11747438_a_at) / Fold change /veh GIMAP4 (11747438_a_at) / RFU KRT8 (11758183_x_at) / Fold change /veh KRT8 (11758183_x_at) / RFU CNN1 (11734310_a_at) / Fold change /veh CNN1 (11734310_a_at) / RFU VPS37D (11726825_at) / Fold change /veh VPS37D (11726825_at) / RFU C10orf10 (11716522_x_at) / Fold change /veh C10orf10 (11716522_x_at) / RFU KIR2DL2 /// KIR2DL4 /// KIR2DL5A /// KIR2DL5B /// KIR2DS1 /// KIR2DS2 /// KIR2DS3 /// KIR2DS4 /// KIR3DL3 /// KIR3DL3 /// KIR3DS1 (11738374_at) / Fold change /veh KIR2DL2 /// KIR2DL4 /// KIR2DL5A /// KIR2DL5B /// KIR2DS1 /// KIR2DS2 /// KIR2DS3 /// KIR2DS4 /// KIR3DL3 /// KIR3DL3 /// KIR3DS1 (11738374_at) / RFU C1QL1 (11718748_at) / Fold change /veh C1QL1 (11718748_at) / RFU TMPRSS4 (11747572_a_at) / Fold change /veh TMPRSS4 (11747572_a_at) / RFU HAMP (11756126_x_at) / Fold change /veh HAMP (11756126_x_at) / RFU RNFT2 (11725882_a_at) / Fold change /veh RNFT2 (11725882_a_at) / RFU NR4A2 (11747474_a_at) / Fold change /veh NR4A2 (11747474_a_at) / RFU ABCC12 (11746883_a_at) / Fold change /veh ABCC12 (11746883_a_at) / RFU TMEM136 (11760407_x_at) / Fold change /veh TMEM136 (11760407_x_at) / RFU CLDN22 /// WWC2 (11732394_at) / Fold change /veh CLDN22 /// WWC2 (11732394_at) / RFU HLA-DPB1 (11760878_x_at) / Fold change /veh HLA-DPB1 (11760878_x_at) / RFU SPINT1 (11716480_a_at) / Fold change /veh SPINT1 (11716480_a_at) / RFU GAP43 (11754022_s_at) / Fold change /veh GAP43 (11754022_s_at) / RFU A4GNT (11735810_at) / Fold change /veh A4GNT (11735810_at) / RFU PRB3 (11715151_x_at) / Fold change /veh PRB3 (11715151_x_at) / RFU TUBB4B (11761932_at) / Fold change /veh TUBB4B (11761932_at) / RFU CAPN14 (11732068_a_at) / Fold change /veh CAPN14 (11732068_a_at) / RFU TMCC2 (11721928_a_at) / Fold change /veh TMCC2 (11721928_a_at) / RFU IRGQ (11745062_a_at) / Fold change /veh IRGQ (11745062_a_at) / RFU FAM174B (11720279_a_at) / Fold change /veh FAM174B (11720279_a_at) / RFU TMPRSS4 (11748680_a_at) / Fold change /veh TMPRSS4 (11748680_a_at) / RFU FAM212B (11763350_a_at) / Fold change /veh FAM212B (11763350_a_at) / RFU PLEKHG5 (11743358_a_at) / Fold change /veh PLEKHG5 (11743358_a_at) / RFU ZSCAN30 (11745921_a_at) / Fold change /veh ZSCAN30 (11745921_a_at) / RFU CMKLR1 (11741424_a_at) / Fold change /veh CMKLR1 (11741424_a_at) / RFU LOC101060620 /// MAPK8IP1 (11723275_at) / Fold change /veh LOC101060620 /// MAPK8IP1 (11723275_at) / RFU SPTSSB (11747773_x_at) / Fold change /veh SPTSSB (11747773_x_at) / RFU PRSS12 (11739890_at) / Fold change /veh PRSS12 (11739890_at) / RFU BIN1 (11741810_x_at) / Fold change /veh BIN1 (11741810_x_at) / RFU WNT11 (11732464_a_at) / Fold change /veh WNT11 (11732464_a_at) / RFU C10orf10 (11716521_a_at) / Fold change /veh C10orf10 (11716521_a_at) / RFU C5orf56 (11738089_at) / Fold change /veh C5orf56 (11738089_at) / RFU CYB561 (11721691_x_at) / Fold change /veh CYB561 (11721691_x_at) / RFU ANKRD19P (11752326_a_at) / Fold change /veh ANKRD19P (11752326_a_at) / RFU OR2T12 /// OR2T33 /// OR2T8 (11738714_s_at) / Fold change /veh OR2T12 /// OR2T33 /// OR2T8 (11738714_s_at) / RFU VCAN (11748164_a_at) / Fold change /veh VCAN (11748164_a_at) / RFU JSRP1 (11732532_at) / Fold change /veh JSRP1 (11732532_at) / RFU KRTAP10-11 (11738290_x_at) / Fold change /veh KRTAP10-11 (11738290_x_at) / RFU MYO3A (11730013_a_at) / Fold change /veh MYO3A (11730013_a_at) / RFU EBF3 (11725865_a_at) / Fold change /veh EBF3 (11725865_a_at) / RFU CAMK2N1 (11719241_x_at) / Fold change /veh CAMK2N1 (11719241_x_at) / RFU C5orf56 (11738088_a_at) / Fold change /veh C5orf56 (11738088_a_at) / RFU OLFML3 (11715873_a_at) / Fold change /veh OLFML3 (11715873_a_at) / RFU LOC100653217 /// NTM (11731650_a_at) / Fold change /veh LOC100653217 /// NTM (11731650_a_at) / RFU MAPK11 (11762145_a_at) / Fold change /veh MAPK11 (11762145_a_at) / RFU FIZ1 (11724087_x_at) / Fold change /veh FIZ1 (11724087_x_at) / RFU OASL (11726364_x_at) / Fold change /veh OASL (11726364_x_at) / RFU SOX15 (11748057_x_at) / Fold change /veh SOX15 (11748057_x_at) / RFU CD79A (11719716_a_at) / Fold change /veh CD79A (11719716_a_at) / RFU HIST1H1D (11736915_at) / Fold change /veh HIST1H1D (11736915_at) / RFU CASKIN2 (11723855_a_at) / Fold change /veh CASKIN2 (11723855_a_at) / RFU LOC730098 (11760151_x_at) / Fold change /veh LOC730098 (11760151_x_at) / RFU OR4N2 (11742367_at) / Fold change /veh OR4N2 (11742367_at) / RFU PRRT2 (11749266_a_at) / Fold change /veh PRRT2 (11749266_a_at) / RFU SNX32 (11753110_a_at) / Fold change /veh SNX32 (11753110_a_at) / RFU CDHR5 (11726645_a_at) / Fold change /veh CDHR5 (11726645_a_at) / RFU RCAN1 (11760418_a_at) / Fold change /veh RCAN1 (11760418_a_at) / RFU FAM167A (11723789_a_at) / Fold change /veh FAM167A (11723789_a_at) / RFU FAM26E (11764081_at) / Fold change /veh FAM26E (11764081_at) / RFU ISYNA1 (11749810_s_at) / Fold change /veh ISYNA1 (11749810_s_at) / RFU ACY1 (11761880_at) / Fold change /veh ACY1 (11761880_at) / RFU 11764098_at / Fold change /veh 11764098_at / RFU SAMD14 (11745864_x_at) / Fold change /veh SAMD14 (11745864_x_at) / RFU NPB (11741838_a_at) / Fold change /veh NPB (11741838_a_at) / RFU TMPRSS6 (11731388_a_at) / Fold change /veh TMPRSS6 (11731388_a_at) / RFU KRTAP10-2 (11738614_at) / Fold change /veh KRTAP10-2 (11738614_at) / RFU ARHGAP8 /// PRR5-ARHGAP8 (11727945_x_at) / Fold change /veh ARHGAP8 /// PRR5-ARHGAP8 (11727945_x_at) / RFU KRTAP5-7 /// NADSYN1 (11734609_at) / Fold change /veh KRTAP5-7 /// NADSYN1 (11734609_at) / RFU RASL12 (11751679_a_at) / Fold change /veh RASL12 (11751679_a_at) / RFU CDKN2B (11736163_a_at) / Fold change /veh CDKN2B (11736163_a_at) / RFU PRF1 (11729649_at) / Fold change /veh PRF1 (11729649_at) / RFU, ZNF638 /// ZNF638-IT1 / Fold change vs veh, ZNF638 /// ZNF638-IT1 / RFU, PANK3 / Fold change vs veh, PANK3 / RFU, SH3YL1 / Fold change vs veh, SH3YL1 / RFU, ZEB2 / Fold change vs veh, ZEB2 / RFU, NRIP1 / Fold change vs veh, NRIP1 / RFU, PTTG1IP / Fold change vs veh, PTTG1IP / RFU, CAPN2 / Fold change vs veh, CAPN2 / RFU, MED14 / Fold change vs veh, MED14 / RFU, SNORA58 / Fold change vs veh, SNORA58 / RFU, C1orf63 / Fold change vs veh, C1orf63 / RFU, LRRFIP1 / Fold change vs veh, LRRFIP1 / RFU, NDUFAF7 / Fold change vs veh, NDUFAF7 / RFU, SLC12A2 / Fold change vs veh, SLC12A2 / RFU, IBTK / Fold change vs veh, IBTK / RFU, ESF1 / Fold change vs veh, ESF1 / Fold change vs veh, TMEM50B / RFU, TAOK1 / Fold change vs veh, TAOK1 / RFU, ACBD3 / Fold change vs veh, ACBD3 / RFU, TMA16 / Fold change vs veh, TMA16 / RFU, RWDD3 / Fold change vs veh, RWDD3 / RFU, BCAT1 / Fold change vs veh, BCAT1 / RFU, EDEM3 / Fold change vs veh, EDEM3 / RFU, TMEM33 / Fold change vs veh, TMEM33 / RFU, WDR75 / Fold change vs veh, WDR75 / RFU, AHCTF1 / Fold change vs veh, AHCTF1 / RFU, TFRC / Fold change vs veh, TFRC / RFU, ZDHHC17 / Fold change vs veh, ZDHHC17 / RFU, NOM1 / Fold change vs veh, NOM1 / RFU, ARL8B / Fold change vs veh, ARL8B / RFU, ZBTB11 / Fold change vs veh, ZBTB11 / RFU, TAMM41 / Fold change vs veh, TAMM41 / RFU, KIAA1704 /// LOC100996395 / Fold change vs veh, KIAA1704 /// LOC100996395 / RFU, ING1 / Fold change vs veh, ING1 / RFU, TRMT61B / Fold change vs veh, TRMT61B / RFU, FUBP3 / Fold change vs veh, FUBP3 / RFU, TP53 / Fold change vs veh, TP53 / RFU, TNKS2 / Fold change vs veh, TNKS2 / RFU, ZFP14 / Fold change vs veh, ZFP14 / RFU, ACTR2 / Fold change vs veh, ACTR2 / RFU, PPP3R1 / Fold change vs veh, PPP3R1 / RFU, PIK3R1 / Fold change vs veh, PIK3R1 / RFU, HNRNPA1 / Fold change vs veh, HNRNPA1 / RFU, RNF170 / Fold change vs veh, RNF170 / RFU, ZNF28 / Fold change vs veh, ZNF28 / RFU, RNGTT / Fold change vs veh, RNGTT / RFU, OGT / Fold change vs veh, OGT / RFU, BRD1 / Fold change vs veh, BRD1 / RFU, MARS / Fold change vs veh, MARS / RFU, ZNF655 / Fold change vs veh, ZNF655 / RFU, FAHD1 / Fold change vs veh, FAHD1 / RFU, BDP1 / Fold change vs veh, BDP1 / RFU, LRRCC1 / Fold change vs veh, LRRCC1 / RFU, ARID1A / Fold change vs veh, ARID1A / RFU, ZNF146 / Fold change vs veh, ZNF146 / RFU, ZNF330 / Fold change vs veh, ZNF330 / RFU, GPN3 / Fold change vs veh, GPN3 / RFU, C9orf123 / Fold change vs veh, C9orf123 / RFU, N4BP2L2 / Fold change vs veh, N4BP2L2 / RFU, ARFIP1 / Fold change vs veh, ARFIP1 / RFU, FAM179B / Fold change vs veh, FAM179B / RFU, BCL10 / Fold change vs veh, BCL10 / RFU, UHRF1BP1L / Fold change vs veh, UHRF1BP1L / RFU, BET1 / Fold change vs veh, BET1 / RFU, CNOT2 / Fold change vs veh, CNOT2 / RFU, ZNF268 / Fold change vs veh, ZNF268 / Fold change vs veh, ZNF507 / RFU, DGCR2 / Fold change vs veh, DGCR2 / RFU, WDSUB1 / Fold change vs veh, WDSUB1 / Fold change vs veh, HSP90B1 /// MIR3652 / RFU, ADSS / Fold change vs veh, ADSS / RFU, GK / Fold change vs veh, GK / RFU, ZNF148 / Fold change vs veh, ZNF148 / RFU, TAF9 / Fold change vs veh, TAF9 / RFU, SLC1A5 / Fold change vs veh, SLC1A5 / RFU, SLMO2 / Fold change vs veh, SLMO2 / RFU, ABCC4 / Fold change vs veh, ABCC4 / RFU, LOC101060439 /// RAP1B / Fold change vs veh, LOC101060439 /// RAP1B / RFU, RFX7 / Fold change vs veh, RFX7 / RFU, GTPBP10 / Fold change vs veh, GTPBP10 / RFU, CNEP1R1 / Fold change vs veh, CNEP1R1 / RFU, BIVM-ERCC5 /// ERCC5 / Fold change vs veh, BIVM-ERCC5 /// ERCC5 / RFU, ILF3 / Fold change vs veh, ILF3 / RFU 11762660_at / Fold change /veh 11762660_at / RFU VCAN (11757783_s_at) / Fold change /veh VCAN (11757783_s_at) / RFU DDX43 (11728927_at) / Fold change /veh DDX43 (11728927_at) / RFU KRT8 (11758188_x_at) / Fold change /veh KRT8 (11758188_x_at) / RFU NKD1 (11759106_at) / Fold change /veh NKD1 (11759106_at) / RFU SRD5A1 (11742802_a_at) / Fold change /veh SRD5A1 (11742802_a_at) / RFU TPSAB1 /// TPSB2 (11721975_s_at) / Fold change /veh TPSAB1 /// TPSB2 (11721975_s_at) / RFU GSTM3 (11746129_a_at) / Fold change /veh GSTM3 (11746129_a_at) / RFU IL23R (11737362_x_at) / Fold change /veh IL23R (11737362_x_at) / RFU TMEM51 (11727254_a_at) / Fold change /veh TMEM51 (11727254_a_at) / RFU PIWIL2 (11732686_x_at) / Fold change /veh PIWIL2 (11732686_x_at) / RFU ORM1 (11744905_x_at) / Fold change /veh ORM1 (11744905_x_at) / RFU CCDC152 (11743942_at) / Fold change /veh CCDC152 (11743942_at) / RFU ECM1 (11717891_a_at) / Fold change /veh ECM1 (11717891_a_at) / RFU IL23R (11748794_a_at) / Fold change /veh IL23R (11748794_a_at) / RFU TNFAIP8L3 (11732012_x_at) / Fold change /veh TNFAIP8L3 (11732012_x_at) / RFU MBOAT4 (11741988_at) / Fold change /veh MBOAT4 (11741988_at) / RFU 11764193_at / Fold change /veh 11764193_at / RFU TMEM53 (11763286_at) / Fold change /veh TMEM53 (11763286_at) / RFU MAGEB2 (11727129_at) / Fold change /veh MAGEB2 (11727129_at) / RFU TMEM200A (11744735_a_at) / Fold change /veh TMEM200A (11744735_a_at) / RFU CCDC152 (11751479_a_at) / Fold change /veh CCDC152 (11751479_a_at) / RFU FAM211A (11726209_a_at) / Fold change /veh FAM211A (11726209_a_at) / RFU RGS16 (11746705_a_at) / Fold change /veh RGS16 (11746705_a_at) / RFU VCAN (11755009_s_at) / Fold change /veh VCAN (11755009_s_at) / RFU RHOB (11743442_s_at) / Fold change /veh RHOB (11743442_s_at) / RFU RGS16 (11720943_a_at) / Fold change /veh RGS16 (11720943_a_at) / RFU RGS16 (11720944_at) / Fold change /veh RGS16 (11720944_at) / RFU, VPS4B / Fold change vs veh, VPS4B / RFU, CREB1 / Fold change vs veh, CREB1 / RFU, DNAJC13 / Fold change vs veh, DNAJC13 / RFU, GNAQ / Fold change vs veh, GNAQ / RFU, CDK5R1 / Fold change vs veh, CDK5R1 / RFU, ZRANB3 / Fold change vs veh, ZRANB3 / RFU, CUL4A / Fold change vs veh, CUL4A / RFU, CCNY / Fold change vs veh, CCNY / RFU, UFL1 / Fold change vs veh, UFL1 / RFU, COG3 / Fold change vs veh, COG3 / RFU, DIAPH2 / Fold change vs veh, DIAPH2 / RFU, SKA2 / Fold change vs veh, SKA2 / RFU, AFF3 / Fold change vs veh, AFF3 / RFU, LMF1 / Fold change vs veh, LMF1 / RFU, IPO11 / Fold change vs veh, IPO11 / RFU, DFFB / Fold change vs veh, DFFB / RFU, FOXP1 / Fold change vs veh, FOXP1 / RFU, CARD8 / Fold change vs veh, CARD8 / RFU, STRN3 / Fold change vs veh, STRN3 / RFU, ADK / Fold change vs veh, ADK / RFU, RASSF2 / Fold change vs veh, RASSF2 / RFU, WIPF1 / Fold change vs veh, WIPF1 / RFU, LARP1B / Fold change vs veh, LARP1B / RFU, RASA1 / Fold change vs veh, RASA1 / RFU, RB1 / Fold change vs veh, RB1 / RFU, PPFIA1 / Fold change vs veh, PPFIA1 / RFU, MAT2A / Fold change vs veh, MAT2A / RFU, CCT5 / Fold change vs veh, CCT5 / RFU, WDR92 / Fold change vs veh, WDR92 / RFU, CUX1 / Fold change vs veh, CUX1 / RFU, TTC7A / Fold change vs veh, TTC7A / RFU, TMEM135 / Fold change vs veh, TMEM135 / RFU, DEPTOR / Fold change vs veh, DEPTOR / RFU, CPM / Fold change vs veh, CPM / RFU, DNAJB6 / Fold change vs veh, DNAJB6 / RFU, CACNA2D3 / Fold change vs veh, CACNA2D3 / RFU, DTX4 / Fold change vs veh, DTX4 / RFU, TFCP2 / Fold change vs veh, TFCP2 / RFU, GMCL1 /// GMCL1P1 / Fold change vs veh, GMCL1 /// GMCL1P1 / RFU, AEBP2 / Fold change vs veh, AEBP2 / RFU, SNHG1 /// SNORD22 /// SNORD25 /// SNORD26 /// SNORD27 /// SNORD28 /// SNORD29 /// SNORD31 / Fold change vs veh, SNHG1 /// SNORD22 /// SNORD25 /// SNORD26 /// SNORD27 /// SNORD28 /// SNORD29 /// SNORD31 / Fold change (Aza/veh), C12orf56 (ProbeSet 11735607_a_at) / Fold change (ACY-1035/veh), C12orf56 (ProbeSet 11735607_a_at) / Fold change (Aza/veh), FGFR1OP (ProbeSet 11751329_s_at) / Fold change (ACY-1035/veh), FGFR1OP (ProbeSet 11751329_s_at) / Fold change (Aza/veh), VPS36 (ProbeSet 11739960_a_at) / Fold change (ACY-1035/veh), VPS36 (ProbeSet 11739960_a_at) / RFU SYPL1 (11715823_x_at) / Fold change /veh SYPL1 (11715823_x_at) / RFU IGFBP7 (11715501_s_at) / Fold change /veh IGFBP7 (11715501_s_at) / RFU REEP3 (11722064_at) / Fold change /veh REEP3 (11722064_at) / RFU IGLL1 (11728026_x_at) / Fold change /veh IGLL1 (11728026_x_at): dose or concentration left out as unconfirmed. Particulars: MV-4-11 cells, 48 hours. The class given is cell-based, human.

`Nc1ccc(-c2cccs2)cc1NC(=O)c1ccc2c(c1)cc(C1CC1)n2CCN1CCOCC1` [ACY-1035]: the “RFU TMPRSS4 (11748680_a_at)” value is recorded as 52.95 RFU.
